Laboratory results published in US20080004271A1, “Inhibitors of TNFalpha, PDE4 and B-RAF, compositions thereof and methods of use therewith” (priority 2006, published 2008).

Experiments:
V600E mutant B-RAF = target: T1, V600E mutant B-RAF (Homo sapiens, UniProt P15056, V600E); assay: V600E Mutant B-RAF 33P Assay; type: biochemical
T1 construct: purchased Upstate
Method: Substrate (HIS-MEK1 K97M) is prepared by Celgene Corp. as described above.
Test compound is diluted in 100% DMSO (600 μM). […] Substrate mixture is prepared as 7.5 μM HIS-MEK1 K97M in assay buffer. ATP mixture is prepared as 300 μM ATP, 75 mM MgCl2, 0.05 μCi/μl ^33P ATP in assay buffer.
In a 96 well assay plate (Falcon Polylpropylene well U-bottom), the following are added to each well: 2.5 μl of test compound solution (serial dilutions), 20 μl of substrate mixture and 17.5 μl of enzyme mixture. The plate is incubated for at least 15 minutes. 10 μl of ATP mixture is added and the plate is incubated at room temperature for about 60 minutes. 80 μl of 12.5% TCA is added to each well, and the plate is incubated for at least 20 minutes. The contents of the plate is transferred to a glass fiber filter plate (Millipore) using a Packard Harvester (washing 10× with 1×PBS). 50 μl of Scintillation-20 fluid is added to each well. The plate is read using a Packard TopCount.

A375 cells = assay: Alamar Blue Viability Assay; type: cell-based; settings: Homo sapiens, A-375, 72 h, 3 days
Method: A375 cells (ATCC # CRL-1619; Passage 4˜15; doubling time is roughly 18 hours) are used. Culture medium is DMEM (high glucose, with L-glutamine)+10% FBS+Pen/Strep. Cells are passed every three days at 1:20.
200 μl of medium only is added into all wells along the edges of a 96-well flat bottom plate and 180 μl of cell suspension (containing 1,000 cells) per well is added into the plate with a Low Evaporation Lid (Costar Cat # 3595). The cells are cultured overnight. Compounds and controls are diluted according to standard compound dilution protocol described below. From 30 mM stock solution, 10 mM, 3 mM, 1 mM, and 0.3 mM solutions in 100% DMSO are prepared using the following serial dilution protocol:
The 30, 10, 3, 1 and 0.3 mM solutions are diluted 1:50 (DMSO:medium) by adding 4 μl of each to 196 μl of culture medium. This yields 600 μM, 200 μM, 60 μM, 20 μM, and 6 μM secondary stock solutions. 4 μl of DMSO are added to 196 μl medium for the DMSO control as well. 20 μl of compound dilutions, including the DMSO control locations (Row G, Columns 2-10 are DMSO control wells), are added in triplicate to the cells in the 96-well plate using a repeat pipettor (see plate layout below). This yields final concentrations of 60 μM, 20 μM, 6 μM, 2 μM, and 0.6 μM containing 0.2% DMSO in each well. The plate is gently tapped to evenly distribute compound within the well. The plate is incubated at 5% CO2 at 37° C. for 3 days.
20 μl of Alamar Blue (Biosource #DAL-1100) is added to each well. The plate is incubated in 5% CO2 incubator for 4 hours. Fluorescence is measured with excitation wavelength at 530 nm and emission wavelength at 590 nm using a Victor 2 multilabel plate reader (Perkin Elmer). Data is saved with plate format as a Text file and entered into ActivityBase (Cell-based SAR; Prolif-Alamar; MTT 5 plates unfixed fit) to calculate the percent of DMSO values for each compound set of triplicate wells and IC50 curves are plotted.

pMEK1/2 in A375 cells = assay: A375 pMEK1/2 Meso Scale Assay; type: cell-based; settings: Homo sapiens, A-375, 2 h; A375 pMEK1/2, about two hours incubation
Method: On the afternoon of Day 1, cells are plated in a 96-well flat bottom cell culture plate at about 50,000 cells/well in a volume of 100 μl. On the morning of Day 2, serial dilutions of test compound(s) are added to the plate. The plate is incubated for about two hours at 37° C., […]. The plate is blocked about five minutes before the compound incubation step is completed by adding 150 μl/well of MSD (Meso Scale Discovery) blocking solution-A (prepared with 20 ml 1× Tris wash buffer (25 ml of 10× Tris buffer+225 ml deionized water) and 600 mg MSD blocker A) and incubating with vigorous shaking at room temperature for one hour. The plate is washed 4× with 1× Tris wash buffer.
Cells are harvested and lysates prepared by removing medium, washing 1× with ice-cold PBS (calcium and magnesium free), adding 50 μl/well Complete Tris buffer and incubating with shaking at 4° C. for one hour. Lysate samples (25 μl) are added to an MSD Multi-Spot plate and incubated with vigorous shaking at room temperature for two hours. The plate is washed 1× with Tris wash buffer.
25 μl/well of […] detection antibody (Anti-pMEK1/2 antibody; SULFO-TAG labeled, light sensitive) in 3 ml of cold antibody dilution buffer (1 ml blocking solution-A, 1.82 ml 1× Tris wash buffer, 150 μl 2% MSD blocker D-M and 30 μl 10% MSD blocker D-R) is added and the plate is incubated with vigorous shaking at room temperature in the dark for one hour. The plate is washed 1× with Tris wash buffer.
150 μl/well of 1× MSD Read buffer T (with surfactant) is added to the plate and the plate is read using a MSD Sector instrument.

T1 sequence (P15056 whole entry V600E): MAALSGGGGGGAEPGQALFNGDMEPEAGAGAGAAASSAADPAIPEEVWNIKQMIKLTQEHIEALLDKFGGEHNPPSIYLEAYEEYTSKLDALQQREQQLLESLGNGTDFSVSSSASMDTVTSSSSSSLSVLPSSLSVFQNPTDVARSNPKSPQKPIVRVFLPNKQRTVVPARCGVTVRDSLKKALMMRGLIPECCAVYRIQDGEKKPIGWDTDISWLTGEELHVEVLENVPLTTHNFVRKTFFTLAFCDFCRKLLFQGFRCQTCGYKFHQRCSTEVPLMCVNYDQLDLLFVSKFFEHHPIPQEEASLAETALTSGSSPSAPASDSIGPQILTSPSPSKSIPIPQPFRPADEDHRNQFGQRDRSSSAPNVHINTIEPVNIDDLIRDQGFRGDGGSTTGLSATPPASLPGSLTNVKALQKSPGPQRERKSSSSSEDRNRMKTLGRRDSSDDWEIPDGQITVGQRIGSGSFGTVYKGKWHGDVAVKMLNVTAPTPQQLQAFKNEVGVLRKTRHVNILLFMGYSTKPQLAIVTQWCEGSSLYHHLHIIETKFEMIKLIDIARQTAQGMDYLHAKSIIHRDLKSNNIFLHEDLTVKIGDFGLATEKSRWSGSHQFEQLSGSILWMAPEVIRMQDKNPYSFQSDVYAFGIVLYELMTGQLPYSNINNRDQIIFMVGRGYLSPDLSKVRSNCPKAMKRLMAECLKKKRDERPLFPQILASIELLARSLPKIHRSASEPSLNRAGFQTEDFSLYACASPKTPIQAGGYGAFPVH

| melting point | IC50 (V600E mutant B-RAF) | IC50 (A375 cells) | IC50 (pMEK1/2 in A375 cells) | Compound |
| --- | --- | --- | --- | --- |
| 201 to 203 °C | – | – | – | NC(=O)c1sc2ncnc(-c3cccc(NC(=O)Nc4cccc(C(F)(F)F)c4)c3)c2c1N [Example 5.2.169, 5-amino-4-[3-({[3-(trifluoromethyl)phenyl]amino}-carbonylamino)phenyl]thiopheno[2,3-d]pyrimidine-6-carboxamide] |
| – | 0.1 to 10 µM | 20 to 30 µM | 20 to 30 µM | C[C@H](O)CNc1nc(-c2ccc(Cl)c(Cl)c2)c2c(N)c(C(N)=O)sc2n1 [Example 205] |
| – | 0.1 to 10 µM | 0.1 to 10 µM | 20 to 30 µM | NC(=O)c1sc2nc(C3CC3)nc(-c3ccc(Cl)c(Cl)c3)c2c1N [Example 189] |
| – | 0.1 to 10 µM | 10 to 20 µM | 20 to 30 µM | NC(=O)CCNc1nc(-c2ccc(Cl)c(Cl)c2)c2c(N)c(C(N)=O)sc2n1 [Example 202] |
| – | 0.1 to 10 µM | 10 to 20 µM | > 60 µM | COc1cncc(-c2nc(C)nc3sc(C(N)=O)c(N)c23)c1 [Example 276] |
| – | 0.1 to 10 µM | 0.1 to 10 µM | 0.1 to 10 µM | Cc1c(O)cccc1-c1nc(NC(C)(C)CO)nc2sc(C(N)=O)c(N)c12 [Example 239] |
| – | 0.1 to 10 µM | 0.1 to 10 µM | 0.1 to 10 µM | CC[C@@H](CO)Nc1nc(-c2cc(O)cc(Cl)c2)c2c(N)c(C(N)=O)sc2n1 [Example 191] |
| – | 0.1 to 10 µM | 10 to 20 µM | 0.1 to 10 µM | NC(=O)c1sc2nc(NC3CC3)nc(-c3ccc4c(c3)OCC4)c2c1N [Example 162] |
| – | 0.1 to 10 µM | 0.1 to 10 µM | 0.1 to 10 µM | CC(C)(CO)Nc1nc(-c2cc(O)c(Cl)c(Cl)c2)c2c(N)c(C(N)=O)sc2n1 [Example 264] |
| – | 0.1 to 10 µM | 10 to 20 µM | > 60 µM | NC(=O)c1sc2ncnc(-c3cccc(NC(=O)Nc4ccncc4)c3)c2c1N [Example 292] |
| – | 0.1 to 10 µM | 0.1 to 10 µM | 0.1 to 10 µM | NC(=O)c1sc2nc(NC3CCNCC3)nc(-c3ccc(Cl)c(Cl)c3)c2c1N [Example 226] |
| – | 0.1 to 10 µM | 0.1 to 10 µM | 0.1 to 10 µM | CC[C@H](CO)Nc1nc(-c2cccc(O)c2F)c2c(N)c(C(N)=O)sc2n1 [Example 243] |
| – | 0.1 to 10 µM | 0.1 to 10 µM | 0.1 to 10 µM | CC[C@H](CO)Nc1nc(-c2cncc(OC)c2)c2c(N)c(C(N)=O)sc2n1 [Example 174] |
| – | 0.1 to 10 µM | 30 to 60 µM | 0.1 to 10 µM | NC(=O)c1sc2nc(NC3CC3)nc(-c3ccc(C(F)(F)F)c(O)c3)c2c1N [Example 234] |
| – | 0.1 to 10 µM | 0.1 to 10 µM | 0.1 to 10 µM | NC(=O)c1sc2nc(NC3CC3)nc(-c3cccc(NC(=O)Nc4ccc(Cl)c(C(F)(F)F)c4)c3)c2c1N [Example 249] |
| – | 0.1 to 10 µM | 10 to 20 µM | 0.1 to 10 µM | CC[C@@H](CO)Nc1nc(-c2cccc(O)c2F)c2c(N)c(C(N)=O)sc2n1 [Example 242] |
| – | 0.1 to 10 µM | 10 to 20 µM | 0.1 to 10 µM | NC(=O)c1sc2nc(N[C@H]3CCOC3)nc(-c3ccc(Cl)c(Cl)c3)c2c1N [Example 228] |
| – | 0.1 to 10 µM | 10 to 20 µM | 10 to 20 µM | COc1cncc(-c2ncnc3sc(C(N)=O)c(N)c23)c1 [Example 275] |
| – | 0.1 to 10 µM | 0.1 to 10 µM | 0.1 to 10 µM | CC[C@@H](CO)Nc1nc(-c2cccc(NC(=O)Nc3ccc(C(F)(F)F)cc3)c2)c2c(N)c(C(N)=O)sc2n1 [Example 259] |

| melting point | IC50 (V600E mutant B-RAF) | IC50 (A375 cells) | IC50 (pMEK1/2 in A375 cells) | Compound |
| --- | --- | --- | --- | --- |
| – | 0.1 to 10 µM | 10 to 20 µM | 0.1 to 10 µM | NC(=O)c1sc2nc(N[C@H]3CCNC3)nc(-c3ccc(Cl)c(Cl)c3)c2c1N [Example 224] |
| – | 0.1 to 10 µM | > 60 µM | > 60 µM | COCCNc1nc(-c2ccc(Cl)c(Cl)c2)c2c(N)c(C(N)=O)sc2n1 [Example 219] |
| – | 0.1 to 10 µM | 20 to 30 µM | 20 to 30 µM | Cc1ccc(-c2nc(NC3CC3)nc3sc(C(N)=O)c(N)c23)cc1 [Example 265] |
| – | 0.1 to 10 µM | 10 to 20 µM | 30 to 60 µM | CNCCNc1nc(-c2ccc(Cl)c(Cl)c2)c2c(N)c(C(N)=O)sc2n1 [Example 218] |
| – | 0.1 to 10 µM | 10 to 20 µM | 0.1 to 10 µM | Cc1ccc(-c2nc(NC3CC3)nc3sc(C(N)=O)c(N)c23)cc1C [Example 188] |
| – | 0.1 to 10 µM | 20 to 30 µM | 0.1 to 10 µM | NC(=O)c1sc2nc(NC3CC3)nc(-c3cncc(Cl)c3)c2c1N [Example 171] |
| – | 0.1 to 10 µM | 0.1 to 10 µM | 0.1 to 10 µM | CC(C)(CN)Nc1nc(-c2ccc(Cl)c(Cl)c2)c2c(N)c(C(N)=O)sc2n1 [Example 256] |
| – | 0.1 to 10 µM | 0.1 to 10 µM | 0.1 to 10 µM | NC(=O)c1sc2nc(N[C@@H]3CCNC3)nc(-c3ccc(Cl)c(Cl)c3)c2c1N [Example 225] |
| – | 0.1 to 10 µM | 0.1 to 10 µM | 20 to 30 µM | Cc1nc(-c2ccc(Cl)c(Cl)c2)c2c(N)c(C(N)=O)sc2n1 [Example 270] |
| – | 0.1 to 10 µM | 10 to 20 µM | 30 to 60 µM | NC(=O)c1sc2ncnc(-c3cccc(NC(=O)Nc4ccccc4C(F)(F)F)c3)c2c1N [Example 296] |
| – | 0.1 to 10 µM | 20 to 30 µM | 20 to 30 µM | COCCCNc1nc(-c2ccc(Cl)c(Cl)c2)c2c(N)c(C(N)=O)sc2n1 [Example 222] |
| – | 0.1 to 10 µM | 20 to 30 µM | 10 to 20 µM | NC(=O)c1sc2nc(NC(CO)CO)nc(-c3ccc(Cl)c(Cl)c3)c2c1N [Example 204] |
| – | 0.1 to 10 µM | 10 to 20 µM | 0.1 to 10 µM | CC[C@@H](CO)Nc1nc(-c2cncc(OC)c2)c2c(N)c(C(N)=O)sc2n1 [Example 175] |
| – | 0.1 to 10 µM | 0.1 to 10 µM | 0.1 to 10 µM | CC(C)(CN)CNc1nc(-c2ccc(Cl)c(Cl)c2)c2c(N)c(C(N)=O)sc2n1 [Example 253] |
| – | 0.1 to 10 µM | 0.1 to 10 µM | 0.1 to 10 µM | C[C@@H](O)[C@@H](C)Oc1nc(-c2ccc(Cl)c(Cl)c2)c2c(N)c(C(N)=O)sc2n1 [Example 214] |
| – | 0.1 to 10 µM | 0.1 to 10 µM | 0.1 to 10 µM | NC(=O)c1sc2nc(NC3(CO)CC3)nc(-c3ccc(Cl)c(Cl)c3)c2c1N [Example 210] |
| – | 0.1 to 10 µM | 0.1 to 10 µM | 0.1 to 10 µM | CC[C@H](CO)Nc1nc(-c2cc(O)cc(Cl)c2)c2c(N)c(C(N)=O)sc2n1 [Example 192] |
| – | 0.1 to 10 µM | 10 to 20 µM | 10 to 20 µM | CC[C@@H](CO)Nc1nc(-c2ccc(Cl)c(Cl)c2)c2c(N)c(C(N)=O)sc2n1 [Example 207] |
